Data: patent US20170312260A1 (LAUNX BIOMEDICAL CO., LTD., priority 2014, published 2017)
Like-named read-outs stand apart in the source and are kept apart here.

Columns and labels:
Format in all cases: cell-based
[1] = system: A549 (lung adenocarcinoma); test: WST-1 cell viability analysis, A549; settings: Homo sapiens
Description: (§1) The cell numbers were counted and reseed as 2×10^6 in cell culture plate/flask. Then, the culture medium were added to a volume of 10 ml, and the cells were cultured for 2-3 days. Then, the cells were suspended for loading into 96-well plates. The number of cells was 3000 and the volume of the culture medium was 100 μl each well.
(§2) Removing the original culture medium from 96-well plate. Then add 100 μl of commercially drug at a concentration of 10 μM per well. After 72 hours, add the diluted WST-1 reagent to the well with 100 μl/well, and the diluted WST-1 reagent was acquired from the dilution of 9:1 medium and WST-1 stock reagent. Finally, the total volume of each well was 200 μl/well. Culture the 96-well plate at 37° C. for 30 to 90 minutes. Detecting and calculate the survival rate of each cancer cells with an ELISA reader at OD450 nm.

[2] = system: H1650 (lung adenocarcinoma); test: WST-1 cell viability analysis, H1650; settings: Homo sapiens
Description: as §1, §2

[3] = system: bladder cancer cell line TSGH; test: WST-1 cell viability analysis, TSGH; settings: 72 hours, read-out: viability (survival rate) of TSGH cells
Description: as §1, §2

[4] = system: bladder cancer cell line T24; test: WST-1 cell viability analysis, T24; settings: Homo sapiens
Description: as §1
Removing the original culture medium from 96-well plate. Then add 100 μl of commercially drug at a concentration of 10 μM per well. After 72 hours, add the diluted WST-1 reagent to the well with 100 μl/well, and the diluted WST-1 reagent was acquired from the dilution of 9:1 medium and WST-1 stock reagent. Finally, the total volume of each well was 200 μl/well. […] Detecting and calculate the survival rate of each cancer cells with an ELISA reader at OD450 nm.

[5] = system: HeLa (Cervix Adenocarcinoma); test: WST-1 cell viability analysis, HeLa; settings: Homo sapiens
Description: as §1, §2

[6] = system: 786-O (Renal adenocarcinoma); test: WST-1 cell viability analysis, 786-O; settings: Homo sapiens
Description: as §1, §2

[7] = system: AGS (Gastric Adenocarcinoma); test: WST-1 cell viability analysis, AGS; settings: Homo sapiens
Description: as §1, §2

[8] = system: MKN-45 (Gastric Adenocarcinoma); test: WST-1 cell viability analysis, MKN-45; settings: Homo sapiens, MKN-45, 10 μM, 72 hours, read-out: viability (survival rate) of MKN-45 cells
Description: as §1, §2

[9] = system: Hep3B (hepatocellular carcinoma); test: WST-1 cell viability analysis, Hep3B; settings: Homo sapiens
Description: as §1, §2

[10] = system: colorectal cancer cell line HCT116-wt; test: WST-1 cell viability analysis, HCT116-wt; settings: 72 hours, read-out: viability (survival rate) of HCT116-wt cells
Description: as §1, §2

[11] = system: pancreatic cancer cell line BxPC-3; test: WST-1 cell viability analysis, BxPC-3; settings: Homo sapiens, BXPC-3, 10 μM, 72 hours, read-out: viability (survival rate) of BxPC-3 cells
Description: as §1, §2

[12] = system: osteosarcoma cell line U2OS; test: WST-1 cell viability analysis, U2OS; settings: Homo sapiens
Description: as §1, §2

[13] = WST-1 cell viability analysis, BEAS-2B; settings: human
Description: Subculture the different types of cancer cell lines. The cancer cells includes lung cancer, gastric cancer, hepatic cancer, colon cancer, skin cancer, cervical cancer, prostate cancer, bladder cancer, breast cancer, leukemia, pancreatic cancer, ovarian cancer, tongue cancer, osteosarcoma, and renal cancer. The normal cells used in the control group included kidney cell (HEK293) and human bronchial epithelial cell line BEAS-2B (as shown in Table 1).
as §1, §2

cervical cancer cells = test: Summary of cell viability, cervical cancer; settings: 72 hours, summary for cervical cancer, read-out: Inhibitory effect, cervical cancer
Description: as §1, §2
(§3) As a result in the experiments of the present invention.

gastric cancer cells = test: Summary of cell viability, gastric cancer; settings: 72 hours, summary over the gastric cancer cell lines, read-out: Inhibitory effect, gastric cancer
Description: as §1, §2, §3

Molecule `CC1=C(C(=O)OC(C)C)C(c2cccc([N+](=O)[O-])c2)C(C(=O)OC2CN(C(c3ccccc3)c3ccccc3)C2)=C(N)N1` (stereo not shown) [Azelnidipine] has a viability at 10 µM ([1]; A549, 10 μM, 72 hours, run 0524-10 min, read-out: viability (survival rate) of A549 cells) of 81.4%, a viability at 10 µM ([1]; A549, 10 μM, 72 hours, run 0526-10 min, read-out: viability (survival rate) of A549 cells) of 119% and a viability at 10 µM ([1]; A549, 10 μM, 72 hours, run 0529-10 min, read-out: viability (survival rate) of A549 cells) of 69.7%. It also gave a viability at 10 µM ([1]; A549, 10 μM, 72 hours, run 0531-10 min, read-out: viability (survival rate) of A549 cells) of 80.2%, a viability at 10 µM ([1]; A549, 72 h, 10 μM, average of 4 tests, read-out: Average viability of A549 cells) of 87.5% and a viability at 10 µM ([2]; NCI-H1650, 10 μM, 72 hours, run 1-10 min, read-out: viability (survival rate) of H1650 cells) of 28.8%. For the same molecule, the viability at 10 µM ([2]; NCI-H1650, 10 μM, 72 hours, run 2-20 min, read-out: viability (survival rate) of H1650 cells) was 26.5%, the viability at 10 µM ([2]; NCI-H1650, 10 μM, 72 hours, run 3-20 min, read-out: viability (survival rate) of H1650 cells) was 40.5% and the viability at 10 µM ([2]; NCI-H1650, 10 μM, 72 hours, run 4-20 min, read-out: viability (survival rate) of H1650 cells) was 62.7%. The viability at 10 µM ([2]; NCI-H1650, 72 h, 10 μM, average of 4 tests, read-out: Average viability of H1650 cells) was 39.7%, the viability at 10 µM ([3]; run 0510-10 min) was 151% and the viability at 10 µM ([3]; run 0512-10 min) was 117%. For the same molecule, the viability at 10 µM ([3]; run 0515-10 min) was 72%, the viability at 10 µM ([3]; run 0517-10 min) was 120% and the viability at 10 µM ([4]; T-24, 10 μM, 72 hours, run 1-30 min, read-out: viability (survival rate) of T24 cells) was 110%. It also gave a viability at 10 µM ([4]; T-24, 10 μM, 72 hours, run 2-20 min, read-out: viability (survival rate) of T24 cells) of 75.3%, a viability at 10 µM ([4]; T-24, 10 μM, 72 hours, run 3-20 min, read-out: viability (survival rate) of T24 cells) of 30.4% and a viability at 10 µM ([4]; T-24, 10 μM, 72 hours, run 4-20 min, read-out: viability (survival rate) of T24 cells) of 102%. The viability at 10 µM ([4]; T-24, 72 h, 10 μM, average of 4 tests, read-out: average viability of T24 cells) was 79.5%, the viability at 10 µM ([5]; 72 h, average of 4 tests, read-out: Average viability of HeLa cells) was 87% and the viability at 10 µM ([5]; 72 hours, run 0524-10 min, read-out: viability (survival rate) of HeLa cells) was 70.4%. For the same molecule, the viability at 10 µM ([5]; 72 hours, run 0526-10 min, read-out: viability (survival rate) of HeLa cells) was 93.7%, the viability at 10 µM ([5]; 72 hours, run 0529-10 min, read-out: viability (survival rate) of HeLa cells) was 81.4% and the viability at 10 µM ([5]; 72 hours, run 0531-10 min, read-out: viability (survival rate) of HeLa cells) was 103%. It also gave a viability at 10 µM ([6]; 786-0, 10 μM, 72 hours, run 0524-10 min, read-out: viability (survival rate) of 786-O cells) of 88.6%, a viability at 10 µM ([6]; 786-0, 10 μM, 72 hours, run 0526-10 min, read-out: viability (survival rate) of 786-O cells) of 79.7% and a viability at 10 µM ([6]; 786-0, 10 μM, 72 hours, run 0529-10 min, read-out: viability (survival rate) of 786-O cells) of 66.5%. The viability at 10 µM ([6]; 786-0, 10 μM, 72 hours, run 0531-10 min, read-out: viability (survival rate) of 786-O cells) was 112%, the viability at 10 µM ([6]; 786-0, 72 h, 10 μM, average of 4 tests, read-out: average viability of 786-O cells) was 86.8% and the viability at 10 µM ([6]; 786-0, 72 h, 10 μM, summary (786-O), read-out: Inhibitory effect, Kidney cancer) was 86.8%. It also gave a viability at 10 µM ([7]; 72 h, average of 4 tests, read-out: average viability of AGS cells) of 90.2%, a viability at 10 µM ([7]; 72 hours, run 0510-10 min, read-out: viability (survival rate) of AGS cells) of 120% and a viability at 10 µM ([7]; 72 hours, run 0512-10 min, read-out: viability (survival rate) of AGS cells) of 124%. The viability at 10 µM ([7]; 72 hours, run 0515-10 min, read-out: viability (survival rate) of AGS cells) was 42.1%, the viability at 10 µM ([7]; 72 hours, run 0517-10 min, read-out: viability (survival rate) of AGS cells) was 74.3% and the viability at 10 µM ([8]; run 0510-10 min) was 174%. The viability at 10 µM ([8]; run 0512-10 min) was 184%, the viability at 10 µM ([8]; run 0515-10 min) was 68.5% and the viability at 10 µM ([8]; run 0517-10 min) was 130%. The viability at 10 µM ([9]; 72 h, average of 4 tests, read-out: Average viability of Hep3B cells) was 98.6%, the viability at 10 µM ([9]; 72 hours, run 0612-20 min, read-out: viability (survival rate) of Hep3B cells) was 114% and the viability at 10 µM ([9]; 72 hours, run 0614-20 min, read-out: viability (survival rate) of Hep3B cells) was 91.5%. For the same molecule, the viability at 10 µM ([9]; 72 hours, run 0616-20 min, read-out: viability (survival rate) of Hep3B cells) was 97.9%, the viability at 10 µM ([9]; 72 hours, run 0619-20 min, read-out: viability (survival rate) of Hep3B cells) was 90.7% and the viability at 10 µM ([10]; run 0602-30 min) was 70.7%. It also gave a viability at 10 µM ([10]; run 0605-10 min) of 146%, a viability at 10 µM ([10]; run 0607-10 min) of 159% and a viability at 10 µM ([10]; run 0609-10 min) of 69.3%. It also gave a viability at 10 µM ([11]; run 3-4-30 min) of 77.5%, a viability at 10 µM ([11]; run 3-7-3-30 min) of 79.9% and a viability at 10 µM ([11]; run 3-7-4-30 min) of 51%. It also gave a viability at 10 µM ([11]; run 3-7-7-30 min) of 50%, a viability at 10 µM ([12]; 72 h, summary (U2OS), read-out: Inhibitory effect, osteosarcoma) of 69.4% and a viability at 10 µM ([12]; 72 hours, run 6-26-10 min, read-out: viability (survival rate) of U2OS cells) of 53.3%. The viability at 10 µM ([12]; 72 hours, run 6-28-10 min, read-out: viability (survival rate) of U2OS cells) was 78.3%, the viability at 10 µM ([12]; 72 hours, run 6-30-10 min, read-out: viability (survival rate) of U2OS cells) was 84.8% and the viability at 10 µM ([12]; 72 hours, run 7-3-10 min, read-out: viability (survival rate) of U2OS cells) was 61.2%. It also gave a viability at 72 h, 10 µM ([13]; BEAS-2B bronchial epithelial cells, run 0510-10 min, read-out: viability (survival rate) of BEAS-2B cells) of 61.3%, a viability at 72 h, 10 µM ([13]; BEAS-2B cells (normal bronchial epithelial cell line), average of 4 tests, read-out: average viability of BEAS-2B cells) of 77.5% and a viability at 72 h, 10 µM ([13]; BEAS-2B cells (normal bronchial epithelial cell line), run 0512-10 min, read-out: viability (survival rate) of BEAS-2B cells) of 61.8%. The viability at 72 h, 10 µM ([13]; BEAS-2B cells (normal bronchial epithelial cell line), run 0515-10 min, read-out: viability (survival rate) of BEAS-2B cells) was 102%, the viability at 72 h, 10 µM ([13]; BEAS-2B cells (normal bronchial epithelial cell line), run 0517-10 min, read-out: viability (survival rate) of BEAS-2B cells) was 85.4% and the viability at 10 µM (cervical cancer cells) was 87%. It also gave a viability at 10 µM (gastric cancer cells) of 115%.
